Source: US9200016B2, “Substituted 6, 7-dialkoxy-3-isoquinoline derivatives as inhibitors of phosphodiesterase 10 (PDE 10A)” (Allergan, Inc., priority 2013, dated 2015)
Counter-ions that a name gives are not always drawn.

Target: PDE10A (Homo sapiens, UniProt Q9Y233)
Experiment: Diaxonhit phosphodiesterase assay (TR-FRET, LANCE cAMP kit), PDE10A
Assay type: biochemical
Procedure: (§1) Diaxonhit Phosphodiesterase Assay (PDE10A and PDE4D3)
The PDE assay is based on the homogenous time-resolved fluorescence resonance energy transfer (TR-FRET) technology (LANCE® from Perkin Elmer). […] When there is PDE activity, resulting in the degradation of the cyclic nucleotide, the complex is not formed and a decrease in signal is observed.
The phosphodiesterase assay was developed using the LANCE® cAMP kit (PerkinElmer). The assay buffer contained HBSS with 5 mM HEPES, 0.1% BSA, and 1.5 mM MgCl2, pH 7.4. […] Chemical compounds were dissolved in DMSO (final concentration 2% (v/v)).
(§2) In a 384-well plate, 2 μL of the inhibitor and 3 μL PDE were added to the well, followed by the addition of 5 μl substrate biotinylated cAMP (1:5). After 60 min incubation at room temperature, 10 μL of assay detection mixture was added to the assay plate. After 1 h at room temperature, the signal was measured on EnVision™ (Perkin Elmer).

PDE10A, sequence (Q9Y233 whole entry, looked up): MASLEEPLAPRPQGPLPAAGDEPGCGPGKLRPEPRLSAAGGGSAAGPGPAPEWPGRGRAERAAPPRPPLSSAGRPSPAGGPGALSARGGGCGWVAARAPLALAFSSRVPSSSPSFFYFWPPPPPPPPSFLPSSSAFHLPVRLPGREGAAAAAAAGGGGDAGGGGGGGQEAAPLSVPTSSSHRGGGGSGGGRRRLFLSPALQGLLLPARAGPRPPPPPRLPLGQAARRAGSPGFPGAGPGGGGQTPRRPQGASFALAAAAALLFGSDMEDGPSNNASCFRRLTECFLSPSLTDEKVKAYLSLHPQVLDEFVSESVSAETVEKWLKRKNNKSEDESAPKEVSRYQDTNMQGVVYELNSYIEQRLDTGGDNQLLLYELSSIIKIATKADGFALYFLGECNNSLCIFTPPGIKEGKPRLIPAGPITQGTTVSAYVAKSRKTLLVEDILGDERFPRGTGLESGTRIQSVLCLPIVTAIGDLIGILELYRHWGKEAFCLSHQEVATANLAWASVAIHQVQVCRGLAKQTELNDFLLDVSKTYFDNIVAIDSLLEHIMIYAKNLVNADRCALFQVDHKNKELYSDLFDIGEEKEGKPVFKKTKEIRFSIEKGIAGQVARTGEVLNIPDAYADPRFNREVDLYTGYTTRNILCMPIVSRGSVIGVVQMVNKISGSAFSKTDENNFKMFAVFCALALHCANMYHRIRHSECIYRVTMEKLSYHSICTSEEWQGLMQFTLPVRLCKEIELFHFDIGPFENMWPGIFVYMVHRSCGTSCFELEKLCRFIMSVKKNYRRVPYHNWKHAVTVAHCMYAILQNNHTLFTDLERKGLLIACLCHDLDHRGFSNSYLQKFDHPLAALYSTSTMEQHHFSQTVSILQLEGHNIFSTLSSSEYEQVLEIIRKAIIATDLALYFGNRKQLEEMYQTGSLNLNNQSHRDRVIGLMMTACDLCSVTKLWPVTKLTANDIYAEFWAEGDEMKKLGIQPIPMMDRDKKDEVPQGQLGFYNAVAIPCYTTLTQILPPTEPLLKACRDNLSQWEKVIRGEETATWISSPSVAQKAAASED

| IC50 | Compound |
| --- | --- |
| > 10000 nM | COc1cc2c(Cc3cnc4ccccc4c3)cnc(C3CCCCC3)c2cc1OC [Compound 71, 3-((1-cyclohexyl-6,7-dimethoxyisoquinolin-4-yl)methyl)quinoline dihydrochloride] |
| > 10000 nM | COc1cc2cncc(Cc3cnc4ccccc4c3)c2cc1O [Compound 29, 7-methoxy-4-(quinolin-3-ylmethyl)isoquinolin-6-ol dihydrochloride] |
| > 10000 nM | COc1cc2c(Cc3cnc4ccccc4c3)cncc2cc1O [Compound 30, 6-methoxy-4-(quinolin-3-ylmethyl)isoquinolin-7-ol dihydrochloride] |

Target: PDE4D3 (Homo sapiens (Human), UniProt Q08499)
Experiment: Diaxonhit phosphodiesterase assay (TR-FRET, LANCE cAMP kit), PDE4D3
Assay type: biochemical
Excerpt: as §1
The PDE assay is based on the homogenous time-resolved fluorescence resonance energy transfer (TR-FRET) technology (LANCE® from Perkin Elmer). This competition based assay is formatted using a cAMP specific antibody labeled with the dye, Alexa Fluor® 647, biotin-cAMP and streptavidin labeled with Europium (Eu-SA). As the complex of Eu-SA/biotin-cAMP/Alexa Fluor 647 labeled antibody is formed, an increase in signal is generated. When there is PDE activity, resulting in the degradation of the cyclic nucleotide, the complex is not formed and a decrease in signal is observed.
The phosphodiesterase assay was developed using the LANCE® cAMP kit (PerkinElmer). The assay buffer contained HBSS with 5 mM HEPES, 0.1% BSA, and 1.5 mM MgCl2, pH 7.4. PDE10A (BPS Bioscience) was used at 200 pg/well (with a specific activity of 3200 pmole/min/μg with assay conditions: 10 mM Tris-HCl, pH 7.4, 10 mM MgCl2, 1 mM MnCl2, 200 μM cAMP, 2.5 kU 5′ nucleotidase, 37° C., 20 min) and PDE4D3 (BPS Bioscience) was used at 100 pg/well (with a specific activity of 32713 pmole/min/μg with assay conditions: 10 mM Tris-HCl, pH 7.4, 10 mM MgCl2, 1 mM MnCl2, 200 μM cAMP, 2.5 kU 5′ nucleotidase, 37° C., 20 min). The Biotin-cAMP tracer, supplied in 10 mmol/L Tris-HCl buffered (pH 8.0) salt solution with 1 mmol/L ethylenediaminetetraacetic acid (EDTA), 0.1% bovine serum albumin (BSA), and 0.05% sodium azide, is used at a dilution of 1/375. The assay detection mixture contained the LANCE Eu-W8044 labeled streptavidin 1/2250 (supplied in 50 mmol/L Tris-HCl buffered (pH 7.8) salt solution with 0.9% sodium chloride (NaCl), 0.1% BSA, and 0.05% sodium azide) and the Alexa Fluor® 647-anti cAMP antibody 1/200 (supplied in 50 mmol/L Tris-HCl buffered (pH 7.8) salt solution with 0.9% NaCl, 0.1% BSA, and 0.05% sodium azide). Chemical compounds were dissolved in DMSO (final concentration 2% (v/v)).
as §2

PDE4D3, sequence (Q08499 other isoform, or with tags, fused parts or gaps): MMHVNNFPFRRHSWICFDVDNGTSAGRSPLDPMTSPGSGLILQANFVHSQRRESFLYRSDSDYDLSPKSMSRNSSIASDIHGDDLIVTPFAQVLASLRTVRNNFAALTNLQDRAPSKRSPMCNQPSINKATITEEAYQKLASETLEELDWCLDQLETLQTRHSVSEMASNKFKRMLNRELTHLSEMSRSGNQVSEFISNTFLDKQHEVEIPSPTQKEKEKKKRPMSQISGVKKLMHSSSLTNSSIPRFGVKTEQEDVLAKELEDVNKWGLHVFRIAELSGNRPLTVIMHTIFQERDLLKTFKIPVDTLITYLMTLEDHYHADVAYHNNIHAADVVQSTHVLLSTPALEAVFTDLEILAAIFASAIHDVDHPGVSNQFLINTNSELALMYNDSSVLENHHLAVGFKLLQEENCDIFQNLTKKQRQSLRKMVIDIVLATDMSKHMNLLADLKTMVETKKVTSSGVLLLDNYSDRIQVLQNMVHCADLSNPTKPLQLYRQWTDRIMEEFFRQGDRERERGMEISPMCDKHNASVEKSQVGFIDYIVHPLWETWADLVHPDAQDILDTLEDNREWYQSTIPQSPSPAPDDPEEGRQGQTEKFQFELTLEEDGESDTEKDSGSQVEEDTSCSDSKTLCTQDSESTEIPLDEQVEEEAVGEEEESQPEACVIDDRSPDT

| IC50 | Compound |
| --- | --- |
| 439 nM | CCc1ncc(Cc2ccc3cccc(O)c3n2)c2cc(OC)c(OC)cc12 [Compound 83, 2-((1-ethyl-6,7-dimethoxyisoquinolin-4-yl)methyl)quinolin-8-ol] |
| 398 nM | CCc1ncc(Cc2ccc3cccc(NC(=O)C(N)=O)c3n2)c2cc(OC)c(OC)cc12 [Compound 93, N^1-(2-((1-ethyl-6,7-dimethoxyisoquinolin-4-yl)methyl)quinolin-8-yl)oxalamide] |
| 194 nM | COCc1ncc(Cc2cnc3ccc(O)c(C(F)(F)F)c3c2)c2cc(OC)c(OC)cc12 [Compound 169, 3-((6,7-dimethoxy-1-(methoxymethyl)isoquinolin-4-yl)methyl)-5-(trifluoromethyl)quinolin-6-ol] |
| 232 nM | CCCc1ncc(Cc2cnc3ccc(O)c(C(F)(F)F)c3c2)c2cc(OC)c(OC)cc12 [Compound 162, 3-((6,7-dimethoxy-1-propylisoquinolin-4-yl)methyl)-5-(trifluoromethyl)quinolin-6-ol] |
